Data on 46 molecules can be found in BindingDB's records for patent US20250313563 (The Broad Institute, 2025).

Assay [1] concerns the target Glycogen synthase kinase-3 beta (Homo sapiens, UniProt P49841). Kind of assay: TR-FRET Assay. The method, boiled down:
(§1)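 30 min preinc w/ cpd in assay buffer → kinase rxn → EDTA quench → add detection mix (40 nM SA-d2, 2 nM Tb-pSer641 Ab) → TR-FRET read.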

Assay [2] addresses Glycogen synthase kinase-3 alpha (Homo sapiens, UniProt P49840). The assay can be described thus: TR-FRET Assay. The essentials: as §1
Background: TR-FRET usually uses a lanthanide donor and a delayed reading to cut background.

Several values for one entry are separate records, joined by “and”; a condition that tells them apart may be missing. Equal entries are not always repeated.

Glycogen synthase kinase-3 beta, sequence (P49841 whole entry): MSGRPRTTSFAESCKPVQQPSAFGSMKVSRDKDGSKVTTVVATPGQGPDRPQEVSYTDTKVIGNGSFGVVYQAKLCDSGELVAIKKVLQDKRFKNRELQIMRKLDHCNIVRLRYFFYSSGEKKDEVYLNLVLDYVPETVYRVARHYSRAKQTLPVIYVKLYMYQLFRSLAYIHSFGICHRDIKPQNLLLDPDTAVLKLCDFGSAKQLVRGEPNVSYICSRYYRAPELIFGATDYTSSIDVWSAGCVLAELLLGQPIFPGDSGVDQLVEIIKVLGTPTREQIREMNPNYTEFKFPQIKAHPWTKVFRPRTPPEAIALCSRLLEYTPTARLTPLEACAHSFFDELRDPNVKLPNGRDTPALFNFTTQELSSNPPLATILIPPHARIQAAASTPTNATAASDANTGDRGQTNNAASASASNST
Glycogen synthase kinase-3 alpha, sequence (P49840 whole entry): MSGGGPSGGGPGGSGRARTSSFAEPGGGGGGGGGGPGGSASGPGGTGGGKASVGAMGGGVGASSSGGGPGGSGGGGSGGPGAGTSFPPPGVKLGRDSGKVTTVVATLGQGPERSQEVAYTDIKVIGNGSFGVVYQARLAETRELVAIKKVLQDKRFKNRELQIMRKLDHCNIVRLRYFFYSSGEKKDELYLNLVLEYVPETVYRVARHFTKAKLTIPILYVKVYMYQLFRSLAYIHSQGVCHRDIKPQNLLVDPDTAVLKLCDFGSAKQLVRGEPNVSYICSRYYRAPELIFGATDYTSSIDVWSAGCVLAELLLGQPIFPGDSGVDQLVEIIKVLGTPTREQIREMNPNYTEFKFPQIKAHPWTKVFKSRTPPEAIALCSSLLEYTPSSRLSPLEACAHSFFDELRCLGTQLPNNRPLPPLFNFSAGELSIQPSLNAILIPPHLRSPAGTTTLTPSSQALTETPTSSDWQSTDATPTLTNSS

For orientation: IC50 means the midpoint of a concentration-inhibition curve. Higher therefore signals weaker potency. As for `CCC1(c2cccc(N3CCCC3=O)c2)C2=CN=NC2NC2=C1C(=O)CC(C)(C)C2` (configuration not stated) [US20250313563, Compound 865171], the IC50 is 100 to 1000 nM in assay [1] and less than 100 nM in assay [2].
The corresponding values for `CC[C@@]1(c2cccc(-c3ccnn3C)c2)C2=C(CC(C)(C)CC2=O)NC2N=NC(C(F)(F)F)=C21` (some centres not stated) [US20250313563, Compound 947372] are less than 100 nM and less than 100 nM.
On the same counts, the results for `CC[C@]1(c2ccccc2)C2=CN=NC2NC2=C1C(=O)CC1(CCC1)C2` (some centres not stated) [US20250313563, Compound 819573] are 100 to 1000 nM and less than 100 nM.
On the same counts, the results for `CC1(C)CC(=O)C2=C(C1)NC1=C(CN=N1)C21CCc2c(Cl)cccc21` (configuration not stated) [US20250313563, Compound 816795] are 100 to 1000 nM and less than 100 nM.
Regarding `CCC1(c2cccc(-c3ccnc(C)c3)c2)C2=C(N=NC2)NC2=C1C(=O)C(C)(C)C2` (configuration not stated) [US20250313563, Compound 949840], the IC50 in assay [1] was 1000 to 5000 nM; in assay [2], 100 to 1000 nM.
For the molecule `CC1(C)CC(=O)C2=C(C1)NC1=C(CN=N1)C21CN(S(=O)(=O)c2cccc(F)c2)C1` [US20250313563, Compound 918278], the IC50 in assay [1] and in assay [2] was less than 100 nM each time.
On to `COc1ccc(S(=O)(=O)N2CCC[C@@]3(CC2)C2=CN=NC2NC2=C3C(=O)CC(C)(C)C2)cc1` (some centres not stated) [US20250313563, Compound 932661], for which the IC50 in assay [1] is 100 to 1000 nM; in assay [2], less than 100 nM.
The corresponding values for `CC1(C)CC(=O)C2=C(C1)NC1=C(CN=N1)C21CC2(COC2)C1` [US20250313563, Compound 912168] are greater than 5000 nM and greater than 5000 nM.
In the case of `CC[C@@]1(c2cccc(-c3ccnc4c(F)cccc34)c2)C2=CN=NC2NC2=C1C(=O)NC(C)(C)C2` (some centres not stated) [US20250313563, Compound 948828], the half-inhibitory concentration (IC50) is 100 to 1000 nM and 1000 to 5000 nM in assay [1]; < 100 nM and 100 to 1000 nM in assay [2].
For `CC[C@]1(c2cccc(-c3cnn(C)c3)c2)C2=CN=NC2NC2=C1C(=O)CC(C)(C)[C@H]2F` (some centres not stated) [US20250313563, Compound 957505], the half-maximal inhibitory concentration (IC50) in assay [1] is 1000 to 5000 nM and > 5000 nM; in assay [2], < 100 nM and 1000 to 5000 nM.
`CCC1(c2cccc(-c3cn(C)nc3C)c2)C2=C(CC(C)(C)NC2=O)NC2N=NC(C(F)F)=C21` (configuration not stated) [US20250313563, Compound 949170]: the half-maximal inhibitory concentration (IC50) in assay [1] and in assay [2] was less than 100 nM throughout.
`CCC1(c2cccc(C(F)(F)F)c2)C2=C(N=NC2)NC2=C1C(=O)N(Cc1ccccc1)C2C` (configuration not stated) [US20250313563, Compound 917162]: the figures for the IC50 in assay [1] and in assay [2] were 100 to 1000 nM and less than 100 nM, respectively.
On the same counts, the results for `CC1(C)CC(=O)C2=C(C1)NC1=C(CN=N1)C21CNC1` [US20250313563, Compound 912075] are greater than 5000 nM and 1000 to 5000 nM.
Consider `CC1(C)CC(=O)C2=C(C1)NC1=C(CN=N1)C21COC2(CN(C(=O)CC3CCC3)C2)C1` (configuration not stated) [US20250313563, Compound 947299], for which the concentration for half-maximal inhibition (IC50) in assay [1] and in assay [2] was less than 100 nM each time.
Consider `CC1(C)CC(=O)C2=C(C1)NC1N=NC(C3(C(F)(F)F)CC3)=C1[C@]21CCc2c(F)cccc21` (some centres not stated) [US20250313563, Compound 816840], for which the concentration for half-maximal inhibition (IC50) was in the range of 100 to 1000 nM in assay [1] and 1000 to 5000 nM in assay [2].
On the same counts, the results for `CC1(C)CC(=O)C2=C(C1)NC1=C(CN=N1)C21COC2(CN(C(=O)C3CCC(F)(F)C3)C2)C1` (configuration not stated) [US20250313563, Compound 947265] are 100 to 1000 nM and less than 100 nM.
The corresponding values for `CC1(C)CC(=O)C2=C(C1)NC1=C(CN=N1)C21CCN(S(=O)(=O)c2cc(F)ccn2)CC1` [US20250313563, Compound 947262] are 100 to 1000 nM and 100 to 1000 nM.
The corresponding values for `CCC1(c2cccc(-c3ccnc(C(F)(F)F)c3)c2)C2=CN=NC2NC2=C1C(=O)CC(C)(C)C2` (configuration not stated) [US20250313563, Compound 913348] are 100 to 1000 nM and less than 100 nM.
Consider `CCC1(c2ccccc2)C2=C(N=NC2)NC2=C1C(=O)C(C)(C)SC2` (configuration not stated) [US20250313563, Compound 862028], for which the IC50 in assay [1] lay within 1000 to 5000 nM; in assay [2], 100 to 1000 nM.
Consider `CC[C@@]1(c2cccc(-c3cncn3C)c2)C2=CN=NC2NC2=C1C(=O)NC(C)(C)C2` (some centres not stated) [US20250313563, Compound 947820], for which the IC50 in assay [1] and in assay [2] was 100 to 1000 nM in each case.
Take `CC[C@@]1(c2cccc(C(F)(F)F)c2)C2=CN=NC2NC2=C1C(=O)N(C(C)C)CC2` (some centres not stated) [US20250313563, Compound 857362]: the concentration for half-maximal inhibition (IC50) in assay [1] and in assay [2] was greater than 5000 nM throughout.
With `CC[C@]1(c2cccc(-c3cn(C)nc3C)c2)C2=CN=NC2NC2=C1C(=O)CC(C)(C)C2` (some centres not stated) [US20250313563, Compound 945545], the results for the IC50 in assay [1] and in assay [2] were greater than 5000 nM and 1000 to 5000 nM, respectively.
As to `CC[C@@]1(c2cccc(-c3cnn(Cc4ccc(OC)cc4)c3)c2)C2=CN=NC2NC2=C1C(=O)NC(C)(C)C2` (some centres not stated) [US20250313563, Compound 951838], the IC50 in assay [1] lay within 1000 to 5000 nM; in assay [2] it was 100 to 1000 nM.
For the molecule `CCC1(c2ccccc2)C2=C(N=NC2)NC2=C1C(=O)C1CCC21` (configuration not stated) [US20250313563, Compound 861716], the results for the 50% inhibitory concentration (IC50) in assay [1] and in assay [2] were greater than 5000 nM and 1000 to 5000 nM, respectively.
Take `CC[C@]1(c2cccc(N3CCCC3)c2)C2=CN=NC2NC2=C1C(=O)CC(C)(C)C2` (some centres not stated) [US20250313563, Compound 810509]: the IC50 in assay [1] and in assay [2] was greater than 5000 nM throughout.
As to `CC[C@@]1(c2cccc(-c3ccnn3-c3ccc(F)cc3)c2)C2=CN=NC2NC2=C1C(=O)NC(C)(C)C2` (some centres not stated) [US20250313563, Compound 950822], the IC50 in assay [1] and in assay [2] was 100 to 1000 nM each time.
For the molecule `CC1(C)CC(=O)C2=C(NC3=C(CN=N3)C23CCN(S(=O)(=O)c2cccc(C(F)(F)F)c2)CC3)[C@@H]1F` [US20250313563, Compound 951703], the half-inhibitory concentration (IC50) in assay [1] was < 100 nM and 1000 to 5000 nM; in assay [2], < 100 nM and 100 to 1000 nM.
In the case of `CC1(C)CC(=O)C2=C(C1)NC1N=NC(C(F)(F)F)=C1C21CCc2c(F)cccc21` (configuration not stated) [US20250313563, Compound 801356], the IC50 in assay [1] and in assay [2] was less than 100 nM in each case.
Take `CC[C@]1(c2cccc(-c3ccnc(C)c3)c2)C2=CN=NC2NC2=C1C(=O)N[C@@H](C)C2` (some centres not stated) [US20250313563, Compound 926299]: the concentration for half-maximal inhibition (IC50) in assay [1] was greater than 5000 nM; in assay [2], 1000 to 5000 nM.
`CCC1(c2cccc(-c3ccnc(C)c3)c2)C2=CN=NC2NC2=C1C(=O)CC(C)(C)C2` (configuration not stated) [US20250313563, Compound 840857]: the IC50 in assay [1] is 100 to 1000 nM; in assay [2], less than 100 nM.
As for `CC1(C)CC(=O)C2=C(C1)NC1=C(CN=N1)C21CCN(S(=O)(=O)C2=CN=C3CC=CC=C3C2)CC1` [US20250313563, Compound 947462], the IC50 is < 100 nM and 1000 to 5000 nM in assay [1]; < 100 nM and 100 to 1000 nM in assay [2].
For the molecule `CC(=O)N1CCC2(C1)CC1(CO2)C2=C(N=NC2)NC2=C1C(=O)CC(C)(C)C2` (configuration not stated) [US20250313563, Compound 948040], the values for the IC50 in assay [1] and in assay [2] were 100 to 1000 nM and less than 100 nM, respectively.
On the same counts, the results for `CCC1(c2cccc(N3CCc4cnccc4C3)c2)C2=CN=NC2NC2=C1C(=O)CC(C)(C)C2` (configuration not stated) [US20250313563, Compound 929449] are 1000 to 5000 nM and 1000 to 5000 nM.
On the same counts, the results for `CC1(C)CC(=O)C2=C(C1)NC1=C(CN=N1)C21CN(C(=O)OCc2ccccc2)C1` [US20250313563, Compound 889568] are 1000 to 5000 nM and 100 to 1000 nM.
For the molecule `CC[C@]1(c2cccc(-c3ccnn3C)c2)C2=CN=NC2NC2=C1C(=O)N[C@](C)(COC)C2` (some centres not stated) [US20250313563, Compound 947908], the concentration for half-maximal inhibition (IC50) in assay [1] was greater than 5000 nM; in assay [2], 1000 to 5000 nM.
As for `CC[C@]1(c2ccccc2)C2=CN=NC2NC2=C1C(=O)CC(C)(C)[C@H]2F` (some centres not stated) [US20250313563, Compound 957197], the IC50 in assay [1] was 1000 to 5000 nM and > 5000 nM; in assay [2] it was 100 to 1000 nM and > 5000 nM.
On to `CC[C@]1(c2cccc(C(F)(F)F)c2)C2=CN=NC2NC2=C1C(=O)N(c1ccc(C)cc1)CC2` (some centres not stated) [US20250313563, Compound 949118], for which the IC50 in assay [1] is 100 to 1000 nM; in assay [2] it was less than 100 nM.
The corresponding values for `CC(C)(C)CC1=C2C(N=N1)NC1=C(C(=O)CC(C)(C)C1)[C@]21CCc2ccc(F)cc21` (some centres not stated) [US20250313563, Compound 789504] are 100 to 1000 nM and 1000 to 5000 nM.
As for `CC[C@@]1(c2cccc(OC)c2)C2=C(CC(C)(C)CC2=O)NC2N=NC(C(F)(F)F)=C21` (some centres not stated) [US20250313563, Compound 884117], the concentration for half-maximal inhibition (IC50) in assay [1] was < 100 nM and 100 to 1000 nM; in assay [2], less than 100 nM.
Take `CC[C@@]1(c2cccc(-c3ccnn3C)c2)C2=CN=NC2NC2=C1C(=O)NC1(CCC1)C2` (some centres not stated) [US20250313563, Compound 948358]: the IC50 was < 100 nM and 1000 to 5000 nM in assay [1]; < 100 nM and 100 to 1000 nM in assay [2].
Take `CCc1cc(N(C)c2cccc(C3(CC)C4=CN=NC4NC4=C3C(=O)CC(C)(C)C4)c2)ccn1` (configuration not stated) [US20250313563, Compound 945600]: the concentration for half-maximal inhibition (IC50) in assay [1] was in the range of 1000 to 5000 nM; in assay [2] it was 100 to 1000 nM.
Turning to `CC[C@]1(c2ccccc2)C2=CN=NC2NC2=C1C(=O)C[C@H](c1ccccc1)C2` (some centres not stated) [US20250313563, Compound 791265], the IC50 in assay [1] is greater than 5000 nM; in assay [2], 1000 to 5000 nM.
The corresponding values for `CC[C@]1(c2cccc(N(C)c3cccc(C(C)(F)F)c3)c2)C2=CN=NC2NC2=C1C(=O)CC(C)(C)C2` (some centres not stated) [US20250313563, Compound 927345] are greater than 5000 nM and greater than 5000 nM.
On the same counts, the results for `C[C@@H]1C[C@H](C)C[C@@]2(C1)C1=C(N=NC1)NC1=C2C(=O)CC(C)(C)C1` [US20250313563, Compound 884114] are 100 to 1000 nM and 100 to 1000 nM.
On the same counts, the results for `CC[C@]1(c2cccc(C3=C4CC=C(F)C=C4N=CC3)c2)C2=CN=NC2NC2=C1C(=O)NC(C)(C)C2` (some centres not stated) [US20250313563, Compound 948519] are greater than 5000 nM and greater than 5000 nM.
Take `CC[C@@]1(c2cccc(C3=C4CC=CC(C)=C4N=CC3)c2)C2=CN=NC2NC2=C1C(=O)NC(C)(C)C2` (some centres not stated) [US20250313563, Compound 952909]: the IC50 in assay [1] is 100 to 1000 nM; in assay [2] it was less than 100 nM.
